Laboratory results: patent US20160339008A1, “METHODS OF TREATING OR PREVENTING VASCULAR DISEASES OF THE RETINA” (Children's Medical Center Corporation, priority 2013, published 2016)
Values belong to the molecule of their own block, whether it stands above or below them.

Key:
[1] = test system: aortic rings (macrovascular sprouting); experiment: Aortic ring sprouting assay (ex vivo aortic ring explants); type: cell-based, mouse
Protocol: Tie2-CYP2C8Tg, Tie2-sEHTg, sEH−/− mice and littermate wild-type mice were anesthetized and perfused intracardiacly with warm PBS. Aortae were dissected free, cut into 1-mm-thick rings and embedded in 304, of growth factor-reduced Matrigel™ (BD Biosciences, Cat. 354230) in 24-well tissue culture plates. 5004, CSC complete medium (Cell Systems, Cat. 420-500) activated with growth factor Boost, was then added to each well and incubated at 37° C. with 5% CO2 for 48 hours before any treatment. Medium contained 5 units/mL of Penicillin/Streptomycin (GIBCO, Cat. 15142) to prevent contamination.
DHA (Cayman Chemical, Cat. 90310, 30 μM) and AA (Cayman Chemical, Cat. 90010, 30 μM) were introduced to the culture medium 48 hours after seeding of aortic ring from Tie2-CYP2C8Tg and littermate wild-type control. 17(18)-EpETE (EEQ) (Cayman Chemical, Cat. 50861, 1 μM), 19(20)-EpDPE (EDP) (Cayman Chemical, Cat. 10175, 1 μM) and 14,15-EE-8(Z)-E (EET) (Cayman Chemical, Cat. 10010486, 1 μM) were administered to the culture medium 48 hours after seeding of aortic ring from Tie2-sEHTg, sEH−/− and their wild-type littermate controls. Medium was changed every 48 hours for all groups. Phase contrast photos of individual explants were taken 168 hours after plating (120 hours after treatment) using a ZEISS Axio Oberver.Z1 microscope. The areas of macrovascular sprouting were quantified with computer software ImageJ 1.46r (National Institute of Health). A semi-automated macro plugin for quantification of vessel sprouts is available from the authors.

[2] = test system: human retinal microvascular endothelial cells (HRMEC); experiment: HRMEC migration; type: cell-based; settings: for rescue of the inhibition of HRMEC migration by FA: with FA
[3] = test system: human retinal microvascular endothelial cells (HRMEC); experiment: HRMEC tubule formation; type: cell-based
[4] = test system: neovascularization (NV) in oxygen-induced retinopathy; experiment: Oxygen-induced retinopathy (OIR) mouse model, quantification of retinal neovascularization; type: in vivo; settings: for magnitude of the extent of reduction in NV, Cyp2C8 Tg mice compared to WT mice: 10 mg/kg/day GV, mice fed ω3 (n3) or ω6 (n6)
Protocol: Mouse model of OIR is described^13. C57BL/6J mice were analyzed by immunohistochemistry, real-time PCR, western blot, blood smear and LC/MS/MS oxylipid analysis. Mothers of Cyp and sEH mutant mice were fed ω3PUFA or ω6PUFA-enriched diets in OIR followed by analysis of retina, plasma and aortic ring sprouting.
The mouse model of oxygen-induced retinopathy has been previously described (Smith et al. Invest Ophthalmol Vis Sci 35: 101-111). To induce vessel loss, mice were exposed to 75% oxygen from postnatal day 7 (P7) to P12. The central retinal vessel obliteration induced by hyperoxic exposure will trigger an excessive angiogenic response that causes neovascularization. Mice were given lethal doses of Avertin (Sigma) intraperitoneally at P17 when the neovascular response is greatest.
For dietary experiments, polyunsaturated fatty acids (PUFAs), arachidonic acid (AA) and docosahexaenoic acid (DHA) supplements under the trade names ROPUFA, ARASCO and DHASCO, respectively, were obtained from DSM Nutritional Products (dsmnutritionalproducts.com) and were integrated into the rodent feed at Research Diets Incorporated (researchdiets.com/). […] Upon delivery, dams were fed a defined rodent diet with 10% (w/w) safflower oil containing either 2% ω-6 PUFAs (AA) and no ω-3 PUFAs (DHA and EPA), or 2% ω-3 PUFAs and no ω-6 PUFAs.
OIR eyes were enucleated and fixed in 4% paraformaldehyde for 1 hour at 4° C. Retinas were dissected and stained overnight at 23° C. with Alexa Fluor 594 fluoresceinated Griffonia Bandereiraea Simplicifolia Isolectin B4 (Molecular Probes, Cat. 121413, 1:100 dilution) in 1 mM CaCl2 in PBS. Following 2 hours of washes, retinas were whole-mounted onto Superfrost/Plus microscope slides (Fisher, Cat. 12-550-15) with the photoreceptor side up and embedded in SlowFade Antifade reagent (Invitrogen, Cat. S2828). For quantification of retinal neovascularization, 20 images of each whole-mounted retina were obtained at 5× magnifications on a Zeiss AxioObserver.Z1 microscope and merged to form one image with AxioVision 4.6.3.0 software. Vaso-obliteration was quantified using Adobe Photoshop and neovascularization was analysed with the SWIFT_NV method on ImageJ 1.46r (NIH) software, as described previously (Stahl et al. Angiogenesis 12: 297-301).

SMILES: CCCCCC1OC1C/C=C\C/C=C\C/C=C\CCCC(=O)O (stereo not shown) [14,15-EET, 14,15-EE-8(Z)-E]
aortic ring sprouting compared between WT, Tie2-sEH-Tg and sEH−/− mice ([1]; 1 μM): similar

SMILES: CCC1OC1C/C=C\C/C=C\C/C=C\C/C=C\CCCC(=O)O (stereo not shown) [17,18-EEQ, 17(18)-EpETE]
rescue of the inhibition of HRMEC migration by FA [2]: partially rescuing
aortic ring sprouting compared between WT, Tie2-sEH-Tg and sEH−/− mice ([1]; 1 μM): no difference

SMILES: CCC1OC1C/C=C\C/C=C\C/C=C\C/C=C\C/C=C\CCC(=O)O (stereo not shown) [19,20-EDP, 19(20)-EpDPE]
rescue of the inhibition of HRMEC migration by FA [2]: partially rescuing
less sprouting, treated Tie2-sEH-Tg aortic ring versus WT ([1]; 1 μM): 50%
rescue of FA inhibition of aortic ring sprouting ([1]; rings from WT & Cyp2C8 Tg mice, with FA): partially rescued
rescue of the inhibition of HRMEC tubule formation by FA ([3]; with FA): partially rescued

SMILES: CCCCC/C=C\C/C=C\C/C=C\C/C=C\CCCC(=O)O [AA, arachidonic acid]
potentiation of aortic sprouting, AA vs. DHA ([1]; 30 μM, Tie2-CYP2C8-Tg rings): abolished
aortic sprouting, AA vs. DHA ([1]; 30 μM, WT rings): potentiated aortic sprouting

aortic sprouting, Tie2-CYP2C8-Tg versus WT ([1]; DHA treatment 30 μM): increased sprouting
SMILES: CC/C=C\C/C=C\C/C=C\C/C=C\C/C=C\C/C=C\CCC(=O)O [DHA, docosahexaenoic acid]

SMILES: CCC(=O)NC[C@H](Cc1ccc(OCCc2nc(-c3ccccc3)oc2C)cc1)N/C(C)=C\C(=O)c1ccc(C(F)(F)F)cc1 [GW6471]
impact upon the effect of fenofibrate on HRMEC migration ([2]; with FA/fenofibrate): no impact
impact upon the effect of FA on aortic ring sprouting ([1]; rings from WT and Cyp2C8 Tg mice, with FA): no impact
impact upon the effect of fenofibrate on HRMEC tubule formation ([3]; with fenofibrate): no impact

SMILES: CC(C)OC(=O)C(C)(C)Oc1ccc(C(=O)c2ccc(Cl)cc2)cc1 [fenofibrate]
magnitude of the extent of reduction in NV, Cyp2C8 Tg mice compared to WT mice [4]: enhanced in mice that overexpressed CYP2C8
neovascularization ([4]; Cyp2C8 overexpressing transgenic (Tg) mice, ω3 and ω6 LCPUFA feed, low dose): decreased neovascularization
neovascularization (NV) ([4]; JAX (WT) mice, normal feed, high dose 100 mg/kg/day GV): significant reduction in neovascularization
neovascularization (NV) ([4]; JAX (WT) mice, normal feed, low dose 10 mg/kg/day GV): significant reduction in neovascularization
neovascularization (NV) ([4]; PPARα knockout mice, normal feed, high dose 100 mg/kg/day GV): significant reduction in neovascularization
neovascularization (NV) ([4]; PPARα knockout mice, normal feed, low dose 10 mg/kg/day GV): significant reduction in neovascularization
neovascularization ([4]; WT mice, ω3 and ω6 LCPUFA feed, low dose): decreased neovascularization
HRMEC tubule formation [3]: inhibit HRMEC tubule formation

SMILES: CC(C)(O)c1ccccc1CC[C@@H](SCC1(CC(=O)O)CC1)c1cccc(/C=C/c2ccc3ccc(Cl)cc3n2)c1 [montelukast]
HRMEC migration [2]: inhibited
magnitude of the extent of reduction in NV, Cyp2C8 Tg mice compared to WT mice [4]: enhanced in mice that overexpressed CYP2C8
neovascularization ([4]; JAX (WT) mice, normal feed, dose not given): reduced in a statistically significant manner
HRMEC tubule formation [3]: clear dose-response curves
